Reference: patent US10010547B2 (CASCADIAN THERAPEUTICS, INC., priority 2014, dated 2018)
Where a name gives a salt, the structure may show the parent alone. Read-outs that look alike come from different tables or passages of the source.

Legend:
MIA PaCa-2 cells = test: Gemcitabine Combination Cell Assay (Cell Titer Glo); format: cell-based; conditions: for IC50: Homo sapiens; for 10xLS: approximate concentration of Chk1 inhibitor that results in a 10-fold reduction in the IC50 of gemcitabine alone; for 2xLS: approximate concentration of Chk1 inhibitor that results in a two-fold reduction in the IC50 of gemcitabine alone
Procedure, shortened: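 MIA PaCa-2 cells were treated 72 h with half-log dilutions of Chk1 inhibitor (top 3000 nM) and gemcitabine (top 100 nM), alone and in full matrix; viability by CellTiter-Glo luminescence. IC50s from four-parameter fit; Chk1 inhibitor concentrations giving two- and ten-fold lowering of gemcitabine IC50 were estimated.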

Chk-1 kinase = Chk-1 kinase (Homo sapiens (Human), UniProt O14757); test: Chk-1 Kinase Inhibiting Activity (33P-ATP filter assay, CHKtide substrate); format: biochemical; conditions: against Chk-1 kinase; read-out: IC50
Sequence of Chk-1 kinase (O14757 whole entry): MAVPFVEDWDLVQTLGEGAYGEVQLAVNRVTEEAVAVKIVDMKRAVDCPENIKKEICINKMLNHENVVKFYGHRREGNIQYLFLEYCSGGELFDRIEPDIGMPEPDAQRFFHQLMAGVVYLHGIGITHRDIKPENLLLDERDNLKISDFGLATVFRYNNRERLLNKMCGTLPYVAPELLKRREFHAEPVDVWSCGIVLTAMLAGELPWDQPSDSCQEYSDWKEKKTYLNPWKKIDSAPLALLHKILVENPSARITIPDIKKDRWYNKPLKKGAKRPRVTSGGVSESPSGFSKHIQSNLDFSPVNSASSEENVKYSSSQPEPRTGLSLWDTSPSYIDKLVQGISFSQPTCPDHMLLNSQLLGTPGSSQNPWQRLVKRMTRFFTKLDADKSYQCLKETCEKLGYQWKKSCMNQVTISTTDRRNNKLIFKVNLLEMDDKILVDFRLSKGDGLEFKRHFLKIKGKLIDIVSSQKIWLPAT
Procedure, shortened: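 Full-length N-terminal GST-tagged human Chk-1 from insect cells, 0.5 nM final, with 20 μM peptide substrate and 33P-ATP in HEPES pH 7.5 buffer with 1% DMSO. Reaction ran 120 minutes at room temperature; incorporated radioactivity captured on P81 filters and counted for IC50.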

[1] = Chk1 inhibitor alone, MIA PaCa-2 cells, 72 h, read-out: Chk1 IC50
[2] = MIA PaCa-2, 72 h, read-out: Chk1 IC50 (nM)

| SMILES | IC50 (MIA PaCa-2 cells; [1]) [nM] | IC50 (Chk-1 kinase) [nM] | 10xLS (MIA PaCa-2 cells; MIA PaCa-2 cells, 72 h) [nM] | 2xLS (MIA PaCa-2 cells; MIA PaCa-2 cells, 72 h) [nM] | IC50 (MIA PaCa-2 cells; [2]) [nM] |
| --- | --- | --- | --- | --- | --- |
| COc1cc(C2CCN(C(C)C)CC2F)ccc1-c1cc(Nc2cnc(C#N)cn2)n[nH]1 (centres unmarked) [Example 88, 5-[[5-[4-(3-fluoro-1-isopropyl-4-piperidyl)-2-methoxy-phenyl]-1H-pyrazol-3-yl]amino]pyrazine-2-carbonitrile] | 424 | 0.079 | 300 | 10 |  |
| COc1cc(C2CCNCC2)c(F)cc1-c1cc(Nc2cnc(C#N)cn2)n[nH]1 [Example 58, 5-[[5-[5-fluoro-2-methoxy-4-(4-piperidyl)phenyl]-1H-pyrazol-3-yl]amino]pyrazine-2-carbonitrile] | 676 | 0.54 | 300 | 30 |  |
| CCN1CCC[C@H]1COc1ccc(-c2cc(Nc3cnc(C#N)cn3)n[nH]2)c(OC)c1 [Example 128, 5-[[5-[4-[[(2S)-1-ethylpyrrolidin-2-yl]methoxy]-2-methoxy-phenyl]-1H-pyrazol-3-yl]amino]pyrazine-2-carbonitrile] | 158 | 0.023 | <100 | <3 |  |
| COc1cc(CN2CC[C@@H](F)C2)ccc1-c1cc(Nc2cnc(C#N)cn2)n[nH]1 [Example 123, 5-[[5-[4-[[(3R)-3-fluoropyrrolidin-1-yl]methyl]-2-methoxy-phenyl]-1H-pyrazol-3-yl]amino]pyrazine-2-carbonitrile hydrochloride] |  | 0.16 | <300 | 3 | 440 |
| COc1cc(OC[C@@H]2CCCN2C)ccc1-c1cc(Nc2cnc(C#N)cn2)n[nH]1 [Example 104, 5-[[5-[2-methoxy-4-[[(2S)-1-methylpyrrolidin-2-yl]methoxy]phenyl]-1H-pyrazol-3-yl]amino]pyrazine-2-carbonitrile hydrochloride] |  | 0.12 | 100 | 3 | 214 |

Now from value to compound, other results behind:

| IC50 (MIA PaCa-2 cells; [1]) [nM] | IC50 (Chk-1 kinase) [nM] | SMILES | 10xLS (MIA PaCa-2 cells; MIA PaCa-2 cells, 72 h) [nM] | 2xLS (MIA PaCa-2 cells; MIA PaCa-2 cells, 72 h) [nM] | IC50 (MIA PaCa-2 cells; [2]) [nM] |
| --- | --- | --- | --- | --- | --- |
| 62 | 0.074 | COc1cc(O[C@H]2CCNC2)ccc1-c1cc(Nc2cnc(C#N)cn2)n[nH]1 [Example 33, 5-[[5-[2-methoxy-4-[(3S)-pyrrolidin-3-yl]oxy-phenyl]-1H-pyrazol-3-yl]amino]pyrazine-2-carbonitrile] | <30 | <3 |  |
| 5390 | 2.8 | COc1cc(NCc2ccccc2)cc(OC)c1-c1cc(Nc2cnc(C#N)cn2)n[nH]1 [Example 1, 5-[5-(4-Benzylamino-2,6-dimethoxy-phenyl)-1H-pyrazol-3-ylamino]-pyrazine-2-carbonitrile] | 1000 | 100 |  |
| 184 | 0.0052 | CCN1CCC(Nc2ccc(-c3cc(Nc4cnc(C#N)cn4)n[nH]3)c(OC)c2)CC1 [Example 111, 5-[[5-[4-[(1-ethyl-4-piperidyl)amino]-2-methoxy-phenyl]-1H-pyrazol-3-yl]amino]pyrazine-2-carbonitrile] | 100 | <3 |  |
| 829 | 0.026 | COc1cc(CC2CCN(C(C)C)CC2)ccc1-c1cc(Nc2cnc(C#N)cn2)n[nH]1 [Example 144, 5-[[5-[4-[(1-isopropyl-4-piperidyl)methyl]-2-methoxy-phenyl]-1H-pyrazol-3-yl]amino]pyrazine-2-carbonitrile] | <300 | 10 |  |
| 1410 | 2.7 | COc1cc(NCc2ccccc2)ccc1-c1cc(Nc2cnc(C#N)cn2)n[nH]1 [Example 2, 5-[5-(4-benzylamino-2-methoxy-phenyl)-1H-pyrazol-3-ylamino]-pyrazine-2-carbonitrile] | 1000 | 100 |  |
| 1610 | 0.29 | COc1cc(CNC(C)(C)CN2CCOCC2)ccc1-c1cc(Nc2cnc(C#N)cn2)n[nH]1 [Example 19, 5-[[5-[4-[[(1,1-dimethyl-2-morpholino-ethyl)amino]methyl]-2-methoxy-phenyl]-1H-pyrazol-3-yl]amino]pyrazine-2-carbonitrile] | ~200 | 3 |  |
